{"source": "patent US20260240851A1", "about": "“Treatment of Parkinson's Disease in a Patient Using a Glucocerebrosidase Activator” (BIAL - R&D Investments, S.A., priority 2023, published 2026)", "assay": "Phase 2 placebo-controlled study of Compound A in GBA-PD (Example 3)", "type": "in vivo, human", "excerpt": "This study is a Phase 2, randomized, double-blind, placebo-controlled, multiple oral dose study of Compound A in subjects (aged 35 to 80 years, inclusive) with GBA-PD. The subjects have a clinical diagnosis of PD for at least 1 year and for no longer than 7 years before initiation of screening (for Part A), as confirmed by a neurologist using the MDS Criteria for Parkinson's Disease, have a modified Hoehn and Yahr score 2.5, have a score of ≥22 on the Montreal Cognitive Assessment (MoCA), and are receiving symptomatic treatment for PD. […] The objectives of this study are to investigate the efficacy, safety, tolerability, pharmacodynamics and PK of once-daily oral administration of Compound A.\nGenetic screening of the subjects is performed using blood collected (preferably whole blood samples). Subjects are screened by sequencing of the full GBA1 gene, with specifications of any PD risk-associated variants that are identified. Subjects are also screened for the presence or absence of PD risk-associated variants in the LRRK2 (Leucine-rich repeat kinase 2) gene. Subjects who have an LRRK2 pathogenic variant are not eligible for Part B (Double-Blind Treatment) of the study.\nSubjects that have a pathogenic variant in the glucocerebrosidase 1 (GBA1) gene (GBA-PD) (for example, see Appendix 1) and have been on a stable dose of PD medication for at least 30 days (at least 60 days for rasagiline) before commencing treatment are included in the next stage of the trial. In addition, subjects with the following are excluded from further treatment: • The subject has Gaucher's disease (GD), as defined by clinical signs and symptoms (i.e., hepatosplenomegaly, cytopenia, skeletal disease), and/or a medical history of marked deficiency of GCase plasmatic activity (preferably GCase whole blood activity) compatible with GD. • The subject is homozygous for a GBA1 pathogenic variant that is known to be associated with GD or compound heterozygous for 2 alleles that are known to be associated with GD. • The subject carries a known PD-associated LRRK2 pathogenic variant (for example, see Appendix 2). • The subject has atypical or secondary parkinsonism by medical history or in the opinion of the investigator. Atypical parkinsonism includes, but is not limited to, diagnoses of progressive supranuclear palsy, cortico-basal syndrome, and multiple system atrophy. Secondary parkinsonism includes drug-induced, toxin-induced, postinfectious, posttraumatic, or vascular parkinsonism. • The subject is using a strong CYP3A4 modulator at the time of screening for Part B. • The subject is using a breast cancer resistance protein (BCRP) substrate (e.g. pravastatin, rosuvastatin, glyburide) at the time of screening for Part B. • (Optionally) The subject has used any of the following medications within 60 days before Baseline: typical or atypical antipsychotics (including, but not limited to, clozapine, pimavanserin, olanzapine, quetiapine, risperidone, and aripiprazole); metoclopramide; prochlorperazine; methyldopa; tetrabenazine; deutetrabenazine; valbenazine; reserpine; or a prior history or continuation or initiation during the study of ambroxol at doses >120 mg/day.\nSubjects are randomly assigned to three groups who receive i) Compound A 10 mg, once daily, oral administration, ii) Compound A 60 mg, once daily, oral administration, or iii) Placebo, once daily, oral administration. Subjects also receive their usual PD medications throughout the study. Randomization is stratified by major/severe (e.g., heterozygous for N370S, D409H, H255Q, D140H, G202R, L324P, I260T, L444P, A190T, R120W; homozygous for T369M or E326K) or minor/mild (e.g., heterozygous for T369M or E326K) PD risk-associated variant. Alternatively, randomization is stratified by severity as a mild or severe GBA1 variant as described in Parlar, 2023 (also see Appendix 1). […]", "data": [{"smiles": "CCCCCO[C@H]1CC[C@H](NC(=O)c2cnn3c(C)cc(C)nc23)CC1", "note": "[Compound A, 5,7-dimethyl-N-((1S*,4S)-4-(pentyloxy)cyclohexyl)pyrazolo[1,5-a]pyrimidine-3-carboxamide]", "values": [{"measurement": "Mean plasma concentrations, 60 mg vs 10 mg", "setting": "all measured time points", "result": "higher after the 60 mg dose than after the 10 mg dose"}, {"measurement": "time to worsening (MDS-UPDRS based and other measures)", "setting": "some subjects, Compound A 10 or 60 mg daily up to 78 weeks vs placebo", "result": "increased time to worsening"}, {"measurement": "Mean change in lysosomal activity", "setting": "vs placebo", "result": "higher"}, {"measurement": "Mean change in plasma concentrations of neurofilament light chain", "setting": "vs placebo", "result": "lower"}, {"measurement": "Mean change of cerebral blood flow by arterial spin labeling with MRI", "setting": "vs placebo", "result": "higher"}, {"measurement": "mean change in the level of GluSph", "setting": "vs placebo", "result": "higher"}]}]}
